Entries after “also recorded” stand apart in the source; their conditions may differ.
What was measured:
[1] = test system: purified β-glucosidase from Candida peltata Y-21603; assay: Inhibition by glucose, cellobiose and other sugars; inhibitors and activators (pNPβG hydrolysis assay); type: biochemical
Description: FIG. 4. […] Reaction time was 15 min at pH 5.0 and 50° C. Enzyme used, 39 mU/ml. pNPβG used: .smallcircle., 0.4 mM; .circle-solid., 0.8 mM; .tangle-solidup., 1.2 mM; Δ, 1.6 mM; .quadrature., 2.0 mM; .box-solid., 2.4 mM.
After incubation at 50° C. for 30 min, the reaction was stopped by adding ice-cold 0.5M Na2 CO3 (1 ml) and the color developed as a result of p-nitrophenol (pNP) liberation was measured at 405 nm.
Inhibition by glucose cellobiose and other sugars. The study of inhibition by glucose was performed with pNPβG as substrate.
Inhibitors and activators.

[2] = test system: purified β-glucosidase from Candida peltata Y-21603; assay: as above; type: biochemical; remark: listed apart in the source
Candida peltata Y-21603 = assay: Growth and β-glucosidase production on various carbon sources; type: cell-based; details: 28° C., 4 days
Description: Yeast strain, medium and culture conditions. The yeast strain (C. peltata NRRL Y-21603, also available as NRRL Y-6888) used in this study was obtained from the ARS culture collection, NCAUR, Peoria, Ill. The medium ([…] et al., 1982, Biotechnol. […] Solution A was a trace mineral solution having the following ingredients (per L): 1.1 g CaO, 0.4 g ZnO, 5.4 g FeCl3 ·6H2 O, 0.25 g CuSO4.5H2 O, 0.24 g CoCl2.6H2 O, 0.06 g H3 BO3 and 13 ml concentrated HCl. Solution B (per L) was composed of 10.1 g MgO and 45 ml concentrated HCl. Solution C (per L) contained 64 g urea, 12 g KH2 PO4, and 1.8 g Na2 HPO4. Substrates were sterilized separately. […] After 4 days, the cells were removed from the culture broth by centrifugation (18,000×g, 20 min). The resulting supernatant solution was used as the crude enzyme preparation. […] Analytical methods. […] Glucose was a good growth substrate for production of β-glucosidase.

[3] = test system: purified β-glucosidase from Candida peltata Y-21603; assay: Substrate specificity and kinetic analysis (Lineweaver-Burk); type: biochemical; details: for Vmax / Km: pH 5.0 and 50° C.; for Km: read-out: apparent Km; for activity on substrate (relative rate of hydrolysis): disaccharides; for relative rate of hydrolysis, of that of pNPβG: aryl-glycosides
Excerpt: Substrate specificity and kinetic analysis. Relative rates of hydrolysis of various substrates by the purified β-glucosidase were studied. The enzyme could hydrolyze pNPβG and cellobiose effectively. Salicin was hydrolyzed at 34% of that of cellobiose. The purified enzyme had very little (<5%) or no activity on lactose, maltose, sucrose and trehalose. It also had no or very little activity on p-nitrophenyl-α-D-glucoside, p-nitrophenyl-β-D-xyloside, p-nitrophenyl-β-D-cellobioside, p-nitrophenyl-α-L-arabinofuranoside, and p-nitrophenyl-β-D-glucuronide (<5%). p-Nitrophenyl-β-D-galactoside was hydrolyzed at 6% of that of pNPβG. The reaction kinetics of the purified enzyme were determined from Lineweaver-Burk plots using pNPβG and cellooligosaccharides (cellobiose to cellohexaose) as substrates under optimal conditions (pH 5.0 and 50° C.).

Compound: O[C@H](CS)[C@H](O)CS (racemic) [DTT, dithiothreitol]
- effect on enzyme activity ([1]; 10 mM): not affected

Compound: [Ca+2] [Ca^2+]
- dependence of enzyme activity on metal ion ([1]; 5 mM): not dependent

Compound: OC[C@H]1O[C@@H](O[C@H]2[C@H](O)[C@@H](O)C(O)O[C@@H]2CO)[C@H](O)[C@@H](O)[C@@H]1O (stereo partly drawn) [Cellobiose, cellobiose]
- substrate inhibition ([2]; 15% cellobiose): no inhibition; also recorded: not observed at all; also recorded: not inhibited at all
- Growth (A660) (Candida peltata Y-21603; carbon source 1% w/v): 8.7
- Vmax [3]: 75 μmol.min^-1.mg^-1 protein
- Km [3]: 66 mM

Compound: [Co+2] [Co^2+]
- dependence of enzyme activity on metal ion ([1]; 0.5 mM): not dependent

Compound: OC[C@H]1OC(O)[C@H](O)[C@@H](O)[C@H]1O (stereo partly drawn) [Galactose]
- inhibition of β-glucosidase activity ([1]; sugar at 56 mM): did not inhibit

Compound: OC[C@H]1OC(O)[C@H](O)[C@@H](O)[C@@H]1O (stereo partly drawn) [Glucose, glucose]
- Growth (A660) (Candida peltata Y-21603; carbon source 1% w/v): 10.7
- Growth (A660) (Candida peltata Y-21603; carbon source 2% w/v): 13.7
- Growth (A660) (Candida peltata Y-21603; carbon source 4% w/v): 13.3
- Growth (A660) (Candida peltata Y-21603; carbon source 8% w/v): 9.7
- Growth (A660) (Candida peltata Y-21603; carbon source 12% w/v): 7.9
- Growth (A660) (Candida peltata Y-21603; carbon source 20% w/v): 7.3

Compound: O=C[C@H](O)[C@@H](O)[C@@H](O)CO [L-Arabinose]
- Growth (A660) (Candida peltata Y-21603; carbon source 1% w/v): 9.4

Compound: OC[C@H]1O[C@@H](O[C@H]2[C@H](O)[C@@H](O)C(O)O[C@@H]2CO)[C@H](O)[C@@H](O)[C@H]1O (stereo partly drawn) [Lactose, lactose]
- inhibition of β-glucosidase activity ([1]; sugar at 29 mM): did not inhibit
- Growth (A660) (Candida peltata Y-21603; carbon source 1% w/v): 2.5
- activity on substrate (relative rate of hydrolysis) ([3]; purified enzyme): < 5%

Compound: OC[C@H]1O[C@H](O[C@H]2[C@H](O)[C@@H](O)[C@H](O)O[C@@H]2CO)[C@H](O)[C@@H](O)[C@@H]1O [Maltose, maltose]
- Growth (A660) (Candida peltata Y-21603; carbon source 1% w/v): 9.3
- activity on substrate (relative rate of hydrolysis) ([3]; purified enzyme): < 5%

Compound: [Mg+2] [Mg^2+]
- dependence of enzyme activity on metal ion ([1]; 5 mM): not dependent

Compound: [Mn+2] [Mn^2+]
- dependence of enzyme activity on metal ion ([1]; 5 mM): not dependent

Compound: OCc1ccccc1O[C@@H]1O[C@H](CO)[C@@H](O)[C@H](O)[C@H]1O [Salicin]
- relative rate of hydrolysis, of that of cellobiose ([3]; purified enzyme): 34%

Compound: OC[C@H]1O[C@@](CO)(O[C@H]2O[C@H](CO)[C@@H](O)[C@H](O)[C@H]2O)[C@@H](O)[C@@H]1O [Sucrose, sucrose]
- inhibition of β-glucosidase activity ([1]; sugar at 29 mM): did not inhibit
- Growth (A660) (Candida peltata Y-21603; carbon source 1% w/v): 9.0
- activity on substrate (relative rate of hydrolysis) ([3]; purified enzyme): < 5%

Compound: OC1OC[C@@H](O)[C@H](O)[C@H]1O (stereo partly drawn) [Xylose, xylose]
- inhibition of β-glucosidase activity ([1]; sugar at 56 mM): did not inhibit
- Growth (A660) (Candida peltata Y-21603; carbon source 1% w/v): 11.3

Compound: OC[C@H]1O[C@@H](O[C@H]2[C@H](O)[C@@H](O)[C@H](O[C@H]3[C@H](O)[C@@H](O)[C@H](O[C@H]4[C@H](O)[C@@H](O)[C@H](O[C@H]5[C@H](O)[C@@H](O)[C@H](O[C@H]6[C@H](O)[C@@H](O)C(O)O[C@@H]6CO)O[C@@H]5CO)O[C@@H]4CO)O[C@@H]3CO)O[C@@H]2CO)[C@H](O)[C@@H](O)[C@@H]1O (stereo partly drawn) [cellohexaose]
- Vmax [3]: 5 μmol.min^-1.mg^-1 protein
- Km [3]: 18 mM

Compound: OC[C@H]1O[C@@H](O[C@H]2[C@H](O)[C@@H](O)[C@H](O[C@H]3[C@H](O)[C@@H](O)[C@H](O[C@H]4[C@H](O)[C@@H](O)[C@H](O[C@H]5[C@H](O)[C@@H](O)C(O)O[C@@H]5CO)O[C@@H]4CO)O[C@@H]3CO)O[C@@H]2CO)[C@H](O)[C@@H](O)[C@@H]1O (stereo partly drawn) [cellopentaose]
- Vmax [3]: 8 μmol.min^-1.mg^-1 protein
- Km [3]: 21 mM

Compound: OC[C@H]1O[C@@H](O[C@H]2[C@H](O)[C@@H](O)[C@H](O[C@H]3[C@H](O)[C@@H](O)[C@H](O[C@H]4[C@H](O)[C@@H](O)C(O)O[C@@H]4CO)O[C@@H]3CO)O[C@@H]2CO)[C@H](O)[C@@H](O)[C@@H]1O (stereo partly drawn) [cellotetraose]
- Vmax [3]: 16 μmol.min^-1.mg^-1 protein
- Km [3]: 35 mM

Compound: OC[C@H]1O[C@@H](O[C@H]2[C@H](O)[C@@H](O)[C@H](O[C@H]3[C@H](O)[C@@H](O)C(O)O[C@@H]3CO)O[C@@H]2CO)[C@H](O)[C@@H](O)[C@@H]1O (stereo partly drawn) [cellotriose]
- Vmax [3]: 32 μmol.min^-1.mg^-1 protein
- Km [3]: 39 mM

Compound: CCO [ethanol]
- increase of pNPβG hydrolysis (initial activity) ([1]; 0.75% (v/v) ethanol, pH 5.0, 50° C., 30 min reaction): 11%

Compound: O=C(CO)[C@@H](O)[C@H](O)[C@H](O)CO [fructose]
- inhibition of β-glucosidase activity ([1]; sugar at 56 mM): did not inhibit

Compound: OC[C@H]1OC(O)[C@@H](O)[C@@H](O)[C@@H]1O (stereo partly drawn) [mannose]
- inhibition of β-glucosidase activity ([1]; sugar at 56 mM): did not inhibit

Compound: O=[N+]([O-])c1ccc(O[C@@H]2O[C@H](CO)[C@H](O)[C@H](O)[C@H]2O)cc1 [p-Nitrophenyl-β-D-galactoside]
- relative rate of hydrolysis, of that of pNPβG ([3]; purified enzyme): 6%

Compound: O=[N+]([O-])c1ccc(O[C@H]2O[C@H](CO)[C@@H](O)[C@H](O)[C@H]2O)cc1 [p-nitrophenyl-α-D-glucoside]
- relative rate of hydrolysis, of that of pNPβG ([3]; purified enzyme): < 5%

Compound: O=[N+]([O-])c1ccc(O[C@@H]2O[C@@H](CO)[C@H](O)[C@H]2O)cc1 [p-nitrophenyl-α-L-arabinofuranoside]
- relative rate of hydrolysis, of that of pNPβG ([3]; purified enzyme): < 5%

Compound: O=[N+]([O-])c1ccc(O[C@@H]2O[C@H](CO)[C@@H](O[C@@H]3O[C@H](CO)[C@@H](O)[C@H](O)[C@H]3O)[C@H](O)[C@H]2O)cc1 [p-nitrophenyl-β-D-cellobioside]
- relative rate of hydrolysis, of that of pNPβG ([3]; purified enzyme): < 5%

Compound: O=C(O)[C@H]1O[C@@H](Oc2ccc([N+](=O)[O-])cc2)[C@H](O)[C@@H](O)[C@@H]1O [p-nitrophenyl-β-D-glucuronide]
- relative rate of hydrolysis, of that of pNPβG ([3]; purified enzyme): < 5%

Compound: O=[N+]([O-])c1ccc(O[C@@H]2OC[C@@H](O)[C@H](O)[C@H]2O)cc1 [p-nitrophenyl-β-D-xyloside]
- relative rate of hydrolysis, of that of pNPβG ([3]; purified enzyme): < 5%

Compound: O=C(O)c1cc[c]([Hg][Cl])cc1 [pCMB, p-chloromercuribenzoic acid]
- effect on enzyme activity ([1]; 0.2 mM): not affected; also recorded: unaffected

Compound: O=[N+]([O-])c1ccc(O[C@@H]2O[C@H](CO)[C@@H](O)[C@H](O)[C@H]2O)cc1 [pNPβG, p-nitrophenyl β-D-glucoside]
- substrate inhibition ([2]; 40 mM pNPβG): not observed at all; also recorded: not inhibited at all
- Vmax [3]: 221 μmol.min^-1.mg^-1 protein
- Km [3]: 2.3 mM

Compound: OC[C@H]1O[C@H](O[C@H]2O[C@H](CO)[C@@H](O)[C@H](O)[C@H]2O)[C@H](O)[C@@H](O)[C@@H]1O [trehalose]
- activity on substrate (relative rate of hydrolysis) ([3]; purified enzyme): < 5%

Compound: arabinose
- inhibition of β-glucosidase activity ([1]; sugar at 56 mM): did not inhibit

From patent publication US5747320A (The United States of America, as represented by the …, priority 1996, dated 1998)
